Laboratory results taken from US8314255B2, “Use of phthalimide and/or sulphonamide derivatives in the treatment of diseases which require reducing the TNF- α levels and an exogenous source of nitric oxide, phthalimide derivatives, sulphonamide derivatives, and a method for obtaining a sulphonamide derivative” (priority 2007, dated 2012).

How the values were obtained:
[1] = test system: Salmonella typhimurium TA100; assay: AMES test, mutagenic evaluation in Salmonella typhimurium TA100 strain with/without metabolic activation (S9); format: cell-based
Experimental: (§1) The procedure was firstly developed by (MARON, D. M. and AMES, B. N. Mut. Res. v. 113, pp. 173-215, 1983)
(§2) For this assay, Salmonella typhimurium TA100 and TA102 strains from the mutagenicity laboratory of the “Faculdade de Ciências Farmacêuticas—UNESP Araraquara” were used. Such strains have the following characteristics: (AMES, 1983)
(§3) The positive controls are mutagenic compounds specific for each strain and test condition, with 25 μL/plate of sodium azide (1.25 μg/plate) and 100 μL of mitomycin (0.5 μg/plate) being the controls for TA100 and TA102, respectively, in the absence of metabolic activation. For assays with metabolic activation, the positive control for TA100 is 50 μL 2-antramine (1.25 μg/plate) and for TA102 it is 50 μL 2-aminofluorene (1.25 μg/plate).
(§4) The preincubation method was used.
(§5) In laminar flow, Salmonella typhimurium (TA100 and TA 102) strains were inoculated individually with a platinum loop, in the respective nutrient broths and maintained at 37° C., under constant stirring (160 rpm) during 14 hours, in order to achieve a density of 1 to 2×10^9 bacteria/mL.
(§6) Different concentrations of the compounds were added into 100 μL of 0.2M phosphate buffer pH 7.4 (or 500 μL of the mixture S9 in metabolic activation assays) and incubated for 20-30 minutes at 37° C. Solutions containing the compounds had DMSO as the solvent. Thereafter, 2 mL of top agar supplemented with traces of histidine and biotin was added, homogenized and plated in glycosylated minimum medium. After solidification of the top agar, the plates were incubated for 48 hours at a 37° C. Then, the counting of the number of revertant colonies per plate was performed. All tested concentrations, positive and negative controls were run in triplicate.
(§7) After 48 hours, the revertant colonies were counted manually, and the protoCOL Colony Counter Version 3.15.630 (1998-2001) SYNBIOSIS LTD system was used for the positive control.
(§8) The final data obtained from the assay was analyzed using the statistical software Salanal (Salmonella Assay Analysis) version 1.0 from the Research Triangle Institute, RTP, North Carolina, USA. Such software allows the dose-response effect to be evaluated by means of analysis of variance (ANOVA-test F) computations between the measurement of the number of revertants at the different tested concentrations (doses) and the negative control, followed by a linear regression. The software model chosen for analyzing the data was Bernstein's (BERNSTEIN, L. et al. Mutat. Res. v. 97, p. 267-281, 1982). The slope of the straight line from the linear portion of the dose-response curve is also provided by this software and corresponds to the number of revertants induced per measurement unit of the analyzed sample.
(§9) From the results, the mutagenicity ratio (MR) was computed for each analyzed dose from each compound. MR is given by the following equation:
(§10) MR=average number of revertants per test plate (spontaneous+induced revertants) […] average number of revertants per plate of the negative control (spontaneous revertants)
(§11) The spontaneous growing means that the number of revertants which developed on the plate, regardless of being induced or not, wherein values higher or equal to 2 are considered as a positive response (VALENT, G. V. et al. Env. Toxicol. Water Quality. v. 8, p. 371-381, 1993).
(§12) The mutagenicity test with metabolic activation system was performed with a microsomal fraction S9 (S9 mix) prepared from a liver homogenizate from Sprague Dawley rats, previously treated with Aroclor 1254, acquired in the freeze-dried form.
(§13) The procedure for this assay is the same, however, instead of the buffer, 500 μL of the S9 mixture should be added.
(§14) The S9 mixture has a viability of 4 hours from preparation when put on ice. The plates are then incubated for 48 hours at 37° C. After the required time has elapsed, the counting of the revertant colonies was carried out. All tested concentrations, positive and negative controls were run in triplicate.

[2] = test system: Salmonella typhimurium TA102; assay: AMES test, mutagenic evaluation in Salmonella typhimurium TA102 strain with/without metabolic activation (S9); format: cell-based
Experimental: as §1, §2, §3, §4, §5, §6, §7, §8, §9, §10, §11, §12, §13, §14

[3] = test system: leukocyte infiltration, peritonitis induced by thioglycolate; assay: Peritonitis assay induced by 3% thioglycolate; format: in vivo; conditions: 300 μMol/Kg orally, mouse, 3% thioglycolate i.p., 4 h
Experimental: In a second assay, the number of total leukocytes (10^6/mL) was evaluated in order to evaluate the ability to inhibit their infiltration in the inflammatory process.
The mice were treated with the substances being analyzed or carrier and after 1 h of oral administration, they were simultaneously subjected to the peritonitis assay, by administering intraperitoneally 1 ml of a 3% thioglycolate solution. 4 h after the administration of thioglycolate, the peritoneal cavity was washed with 3 ml of a HANKS solution (Balanced salt solution, free of Ca^2+ and Mg^2+). Next, the peritoneal wash was analyzed and the total counting of white blood cells was made in a Newbauer's chamber under an optical microscope with a 40× objective.

gamma-globin mRNA = conditions: 48 hours, data in the literature; cited from earlier work

For `O=C1c2ccccc2C(=O)N1c1cccc(CO[N+](=O)[O-])c1` [Compound IC, 3-(1,3-dioxo-1,3-dihydro-2H-isoindol-2-yl)benzyl nitrate], the “mutagenicity ratio (MR)” value ([1]; TA 100, +S9, 0.224 μmol/plate) was 1.27, the “number of revertants per plate” value ([1]; TA 100, +S9, 0.224 μmol/plate) was 165 ± 13.2 revertants/plate and the “mutagenicity ratio (MR)” value ([1]; TA 100, +S9, 0.488 μmol/plate) was 1.18. The “number of revertants per plate” value ([1]; TA 100, +S9, 0.488 μmol/plate) was 153 ± 13.1 revertants/plate, the “mutagenicity ratio (MR)” value ([1]; TA 100, +S9, 0.896 μmol/plate) was 1.12 and the “number of revertants per plate” value ([1]; TA 100, +S9, 0.896 μmol/plate) was 146 ± 5 revertants/plate. The “mutagenicity ratio (MR)” value ([1]; TA 100, +S9, 1.8 μmol/plate) was 1.26, the “number of revertants per plate” value ([1]; TA 100, +S9, 1.8 μmol/plate) was 163 ± 22.5 revertants/plate and the “mutagenicity ratio (MR)” value ([1]; TA 100, +S9, 3.58 μmol/plate) was 1.22. For the same compound, the “number of revertants per plate” value ([1]; TA 100, +S9, 3.58 μmol/plate) was 158.3 ± 9.3 revertants/plate, the “mutagenicity ratio (MR)” value ([1]; TA 100, −S9, 0.224 μmol/plate) was 1.21 and the “number of revertants per plate” value ([1]; TA 100, −S9, 0.224 μmol/plate) was 216.7 ± 10.2 revertants/plate. For the same compound, the “mutagenicity ratio (MR)” value ([1]; TA 100, −S9, 0.488 μmol/plate) was 1.25, the “number of revertants per plate” value ([1]; TA 100, −S9, 0.488 μmol/plate) was 224.5 ± 24.6 revertants/plate and the “mutagenicity ratio (MR)” value ([1]; TA 100, −S9, 0.896 μmol/plate) was 1.48. For the same compound, the “number of revertants per plate” value ([1]; TA 100, −S9, 0.896 μmol/plate) was 266.3 ± 8.4 revertants/plate, the “mutagenicity ratio (MR)” value ([1]; TA 100, −S9, 1.8 μmol/plate) was 1.34 and the “number of revertants per plate” value ([1]; TA 100, −S9, 1.8 μmol/plate) was 239.7 ± 11.3 revertants/plate. The “mutagenicity ratio (MR)” value ([1]; TA 100, −S9, 3.58 μmol/plate) was 1.8, the “number of revertants per plate” value ([1]; TA 100, −S9, 3.58 μmol/plate) was 323.7 ± 10.2 revertants/plate and the “mutagenicity (AMES test, overall)” value ([1]; TA100 and TA102, with and without S9, at the concentrations used) was “did not show mutagenicity”. For the same compound, the “mutagenicity ratio (MR)” value ([2]; TA 102, +S9, 0.224 μmol/plate) was 0.73, the “number of revertants per plate” value ([2]; TA 102, +S9, 0.224 μmol/plate) was 272 ± 26 revertants/plate and the “mutagenicity ratio (MR)” value ([2]; TA 102, +S9, 0.488 μmol/plate) was 1.01. The “number of revertants per plate” value ([2]; TA 102, +S9, 0.488 μmol/plate) was 378 ± 6.1 revertants/plate, the “mutagenicity ratio (MR)” value ([2]; TA 102, +S9, 0.896 μmol/plate) was 1.09 and the “number of revertants per plate” value ([2]; TA 102, +S9, 0.896 μmol/plate) was 405 ± 11 revertants/plate. The “mutagenicity ratio (MR)” value ([2]; TA 102, +S9, 1.8 μmol/plate) was 1.07, the “number of revertants per plate” value ([2]; TA 102, +S9, 1.8 μmol/plate) was 399.3 ± 40 revertants/plate and the “mutagenicity ratio (MR)” value ([2]; TA 102, +S9, 3.58 μmol/plate) was 1.15. For the same compound, the “number of revertants per plate” value ([2]; TA 102, +S9, 3.58 μmol/plate) was 431 ± 17.9 revertants/plate, the “mutagenicity ratio (MR)” value ([2]; TA 102, −S9, 0.224 μmol/plate) was 1.10 and the “number of revertants per plate” value ([2]; TA 102, −S9, 0.224 μmol/plate) was 281 ± 25 revertants/plate. The “mutagenicity ratio (MR)” value ([2]; TA 102, −S9, 0.488 μmol/plate) was 1.12, the “number of revertants per plate” value ([2]; TA 102, −S9, 0.488 μmol/plate) was 286 ± 4.2 revertants/plate and the “mutagenicity ratio (MR)” value ([2]; TA 102, −S9, 0.896 μmol/plate) was 1.19. For the same compound, the “number of revertants per plate” value ([2]; TA 102, −S9, 0.896 μmol/plate) was 303 ± 9.2 revertants/plate, the “mutagenicity ratio (MR)” value ([2]; TA 102, −S9, 1.8 μmol/plate) was 1.55 and the “number of revertants per plate” value ([2]; TA 102, −S9, 1.8 μmol/plate) was 395.7 ± 9 revertants/plate. For the same compound, the “mutagenicity ratio (MR)” value ([2]; TA 102, −S9, 3.58 μmol/plate) was 1.52, the “number of revertants per plate” value ([2]; TA 102, −S9, 3.58 μmol/plate) was 387 ± 9.7 revertants/plate and the “Cell Number avg (×106), total leukocytes” value [3] was 3.2 ×106. The “Inhibition % (leukocyte infiltrate)” value [3] was 42.85%.

For `NC(=O)NO` [HU, Hydroxyurea], the “concentration producing comparable activity on gamma-globin expression” value (gamma-globin mRNA) is given as 10 µM.
